From patent US5843449A, “Proteins and novel peptides derived from autoantigen for use in immunotherapy of autoimmune diseases” (Akzo Nobel N.V., priority 1996, dated 1998)
pIC50: −log10 of the molar value. Read-outs that look alike come from different tables or passages of the source. Residues, ends and D or L forms follow the SMILES beside them.

Tests used:
[1] = molecular target: T1, DR4Dw4 (DRB1*0401) HLA-DR molecules (Homo sapiens, UniProt P01903+P01911, A100K/A169T/F76Y/I96L/K127E/L162R/M171V/N62H/P40V/Q125Y/R42H/S133A/S149N/S66Y/V115G/V209L/W38E); test: HLA-DR peptide binding assay (competition with biotinylated marker peptide), DR4Dw4; conditions: pH = 5, 50 nM biotin-spacer-IHA(307-319)F marker peptide
T1 construct: endogenous in cells; host or cells: BSM, EBV-transformed B-cell line

[2] = molecular target: DR4Dw14 HLA-DR molecules; test: HLA-DR peptide binding assay (competition with biotinylated marker peptide), DR4Dw14; design: species or system human; conditions: pH = 5, 50 nM biotin-spacer-IHA(307-319)F marker peptide

**Q.** How did the pIC50 ([1]; DOT Blot, densitometer, read-out: ^R IC50, DR4Dw4, DOT Blot) turn out when CC(C)C[C@H](NC(=O)[C@H](CCCCN)NC(=O)[C@H](CC(C)C)NC(=O)[C@@H](NC(=O)[C@H](CC(N)=O)NC(=O)[C@H](CCC(N)=O)NC(=O)[C@H](CCCCN)NC(=O)[C@@H](NC(=O)[C@H](Cc1ccccc1)NC(=O)[C@H](CCCCN)NC(=O)[C@@H]1CCCN1)C(C)C)[C@@H](C)O)C(=O)N[C@@H](C)C(=O)N[C@H](C(=O)O)[C@@H](C)O [IHA(307-319)F, reference compound] (H-PKFVKQNTLKLAT-OH) was run?
**A.** The pIC50 was 6.26.

**Q.** And the pIC50 ([1]; SDS-PAGE, visual inspection, read-out: ^R IC50, DR4Dw4, SDS-PAGE)?
**A.** The pIC50 was 6.52.

**Q.** What about the pIC50 ([2]; DOT Blot, densitometer, read-out: ^R IC50, DR4Dw14, DOT Blot) of the same molecule?
**A.** The pIC50 was 6.28.

**Q.** What about the pIC50 ([2]; SDS-PAGE, visual inspection, read-out: ^R IC50, DR4Dw14, SDS-PAGE) of the same molecule?
**A.** Its pIC50 is 6.52.
